Experimental data: patent EP4273147A1, “SUBSTITUTED SPIROLACTAMS, SALTS THEREOF AND THEIR USE AS HERBICIDALLY ACTIVE SUBSTANCES” (Bayer Aktiengesellschaft, priority 2022, dated 2023)

Columns and labels:
[1] = tested on: ECHCG; experiment: Herbicidal pre-emergence action (Table A2); type: in vivo, Echinochloa crus-galli; conditions: application rate 320 g/ha; visual grading after ca. 3 weeks
Procedure, shortened: (§1)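 Pots: sandy loam. Sowing: one mono- and one dicot weed species together per pot. Seeds covered with soil.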

[2] = tested on: LOLRI; experiment: Herbicidal pre-emergence action (Table A3); type: in vivo, Lolium rigidum; conditions: visual grading after ca. 3 weeks
Procedure, shortened: as §1

[3] = tested on: MATIN; experiment: Herbicidal pre-emergence action (Table A4); type: in vivo, Matricaria inodora; conditions: visual grading after ca. 3 weeks
Procedure, shortened: as §1

[4] = tested on: SETVI; experiment: Herbicidal pre-emergence action (Table A5); type: in vivo, Setaria viridis; conditions: visual grading after ca. 3 weeks
Procedure, shortened: as §1

[5] = tested on: POAAN; experiment: Herbicidal pre-emergence action (Table A7); type: in vivo, Poa annua
Procedure, shortened: as §1

[6] = tested on: ALOMY; experiment: Herbicidal pre-emergence action (Table A9); type: in vivo, Alopecurus myosuroides; conditions: application rate 1280 g/ha; visual grading after ca. 3 weeks
Procedure, shortened: as §1

[7] = tested on: ALOMY; experiment: Herbicidal post-emergence action (Table B2); type: in vivo, Alopecurus myosuroides; conditions: application rate 1280 g/ha; rated visually after about 3 weeks
Experimental: Seeds of mono- and dicotyledonous weed plants were placed in plastic pots in sandy loam soil (doubly sown with in each case one species of mono- or dicotyledonous weed plants per pot), covered with soil and cultivated in a greenhouse under controlled growth conditions. 2 to 3 weeks after sowing, the test plants were treated at the one-leaf stage. […] After the test plants had been kept in the greenhouse under optimum growth conditions for about 3 weeks, the activity of the preparations was rated visually in comparison to untreated controls. For example, 100% activity = the plants have died, 0% activity = like control plants.

[8] = tested on: ECHCG; experiment: Herbicidal post-emergence action (Table B3); type: in vivo, Echinochloa crus-galli; conditions: rated visually after about 3 weeks
Procedure, shortened: (§2)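 Visual rating against untreated plants (0% = as control, 100% = dead) made roughly 3 weeks after application. Weed species were grown in sandy loam pots under greenhouse conditions and sprayed at the one-leaf stage, 2–3 weeks post-sowing.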

[9] = tested on: SETVI; experiment: Herbicidal post-emergence action (Table B8); type: in vivo, Setaria viridis
Procedure, shortened: as §2

[10] = tested on: VERPE; experiment: Herbicidal post-emergence action (Table B10); type: in vivo, Veronica persica
Procedure, shortened: as §2

[11] = tested on: STEME; experiment: Herbicidal pre-emergence action (Table A6); type: in vivo, Stellaria media; conditions: application rate 320 g/ha; visual grading after ca. 3 weeks
Procedure, shortened: as §1

[12] = tested on: KCHSC; experiment: Herbicidal pre-emergence action (Table A10); type: in vivo, Kochia scoparia; conditions: application rate 320 g/ha; visual grading after ca. 3 weeks
Procedure, shortened: as §1

[13] = tested on: VERPE; experiment: Herbicidal pre-emergence action (Table A11); type: in vivo, Veronica persica; conditions: application rate 1280 g/ha; visual grading after ca. 3 weeks
Procedure, shortened: as §1

[14] = tested on: DIGSA; experiment: Herbicidal pre-emergence action (Table A12); type: in vivo, Digitaria sanguinalis; conditions: application rate 320 g/ha; visual grading after ca. 3 weeks
Procedure, shortened: as §1

[15] = tested on: MATIN; experiment: Herbicidal post-emergence action (Table B6); type: in vivo, Matricaria inodora; conditions: application rate 1280 g/ha; rated visually after about 3 weeks
Procedure, shortened: as §2

[16] = tested on: ABUTH; experiment: Herbicidal pre-emergence action, section C (Table C1); type: in vivo, Abutilon theophrasti; conditions: application rate 320 g/ha; visual grading after ca. 3 weeks
[17] = tested on: ALOMY; experiment: Herbicidal pre-emergence action, section C (Table C2); type: in vivo, Alopecurus myosuroides; conditions: application rate 80 g/ha; visual grading after ca. 3 weeks
[18] = tested on: DIGSA; experiment: Herbicidal pre-emergence action, section C (Table C5); type: in vivo, Digitaria sanguinalis; conditions: application rate 320 g/ha; visual grading after ca. 3 weeks
[19] = tested on: ECHCG; experiment: Herbicidal pre-emergence action, section C (Table C6); type: in vivo, Echinochloa crus-galli; conditions: application rate 320 g/ha; visual grading after ca. 3 weeks
[20] = tested on: LOLRI; experiment: Herbicidal pre-emergence action, section C (Table C7); type: in vivo, Lolium rigidum; conditions: application rate 320 g/ha; visual grading after ca. 3 weeks
Description: (§4) Seeds of mono- and dicotyledonous weed plants and crop plants were sown, in plastic or organic planting pots, in sandy loam and covered with soil. The compounds according to the invention, formulated in the form of wettable powders (WP) or as emulsifiable concentrates (EC), were applied to the surface of the covering soil as aqueous suspension or emulsion, with the addition of 0.5% of an additive, at an application rate of 600 1 of water/ha (converted). Following treatment, the pots were placed in a greenhouse and kept under optimum growth conditions for the test plants.

[21] = tested on: MATIN; experiment: Herbicidal pre-emergence action, section C (Table C8); type: in vivo, Matricaria inodora; conditions: application rate 320 g/ha; visual grading after ca. 3 weeks
[22] = tested on: POLCO; experiment: Herbicidal pre-emergence action, section C (Table C9); type: in vivo, Polygonum convolvulus; conditions: application rate 320 g/ha; visual grading after ca. 3 weeks
Description: as §4

[23] = tested on: SETVI; experiment: Herbicidal pre-emergence action, section C (Table C10); type: in vivo, Setaria viridis; conditions: visual grading after ca. 3 weeks
[24] = tested on: VERPE; experiment: Herbicidal pre-emergence action, section C (Table C11); type: in vivo, Veronica persica; conditions: application rate 320 g/ha; visual grading after ca. 3 weeks
[25] = tested on: VIOTR; experiment: Herbicidal pre-emergence action, section C (Table C12); type: in vivo, Viola tricolor; conditions: application rate 80 g/ha; visual grading after ca. 3 weeks
[26] = tested on: ZEAMX; experiment: Pre-emergence effects on crop plants (Table D1); type: in vivo, Zea mays; conditions: crop plant; application rate 320 g/ha; visual grading after ca. 3 weeks
[27] = tested on: TRZAS; experiment: Pre-emergence effects on crop plants (Table D2); type: in vivo, Triticum aestivum; conditions: crop plant, visual grading after ca. 3 weeks
[28] = tested on: ECHCG; experiment: Herbicidal post-emergence action, section E (Table E5); type: in vivo, Echinochloa crus-galli; conditions: application rate 320 g/ha; assessed visually after ca. 3 weeks
Description: (§3) 2 to 3 weeks after sowing, the test plants were sprayed in the single-leaf stage.

[29] = tested on: SETVI; experiment: Herbicidal post-emergence action, section E (Table E8); type: in vivo, Setaria viridis; conditions: assessed visually after ca. 3 weeks
Description: as §3

[30] = tested on: ZEAMX; experiment: Post-emergence effects on crop plants (Table F1); type: in vivo, Zea mays; conditions: crop plant ZEAMX
Description: as §3

[31] = tested on: TRZAS; experiment: Post-emergence effects on crop plants (Table F2); type: in vivo, Triticum aestivum; conditions: application rate 320 g/ha, crop plant TRZAS
Description: as §3

[32] = tested on: ORYZA; experiment: Post-emergence effects on crop plants (Table F3); type: in vivo, Oryza sativa; conditions: application rate 320 g/ha, crop plant ORYZA
Description: as §3

[33] = tested on: ORYZA; experiment: Pre-emergence effects on crop plants (Table D3); conditions: crop plant, visual grading after ca. 3 weeks
Description: Seeds of mono- and dicotyledonous weed plants and crop plants were sown, in plastic or organic planting pots, in sandy loam and covered with soil. The compounds according to the invention, formulated in the form of wettable powders (WP) or as emulsifiable concentrates (EC), were applied to the surface of the covering soil as aqueous suspension or emulsion, with the addition of 0.5% of an additive, at an application rate of 600 1 of water/ha (converted).
Following treatment, the pots were placed in a greenhouse and kept under optimum growth conditions for the test plants.

[34] = tested on: BRSNW; experiment: Pre-emergence effects on crop plants (Table D5); type: in vivo, Brassica napus; conditions: crop plant; application rate 320 g/ha; visual grading after ca. 3 weeks
[35] = tested on: VIOTR; experiment: Herbicidal post-emergence action, section E (Table E10); type: in vivo, Viola tricolor; conditions: application rate 320 g/ha; assessed visually after ca. 3 weeks
Description: as §3

[36] = tested on: GLXMA; experiment: Post-emergence effects on crop plants (Table F4); type: in vivo, Glycine max; conditions: application rate 320 g/ha, crop plant GLXMA
Description: as §3

[37] = tested on: BRSNW; experiment: Post-emergence effects on crop plants (Table F5); type: in vivo, Brassica napus; conditions: application rate 80 g/ha, crop plant BRSNW
Description: as §3

O=C1N(Cc2ccccc2Cl)CCCC12CCCN(Cc1cccc(F)c1F)C2=O (racemic) [I-018]
pre-emergence activity against ECHCG [1]: 100% | pre-emergence activity against LOLRI ([2]; application rate 320 g/ha): 100% | pre-emergence activity against MATIN ([3]; application rate 1280 g/ha): 90% | pre-emergence activity against SETVI ([4]; application rate 320 g/ha): 90% | pre-emergence activity against POAAN ([5]; pre-emergence, 1290 g/ha, 504 h): 100% | pre-emergence activity against ALOMY [6]: 90% | post-emergence activity against ALOMY [7]: 90% | post-emergence activity against ECHCG ([8]; application rate 320 g/ha): 90% | post-emergence activity against SETVI ([9]; application rate 320 g/ha): 90% | post-emergence activity against VERPE ([10]; application rate 320 g/ha): 90%

O=C1N(Cc2ccccc2)CCC12CCCN(Cc1cccc(F)c1F)C2=O (racemic) [I-028]
pre-emergence activity against ECHCG [1]: 100% | pre-emergence activity against LOLRI ([2]; application rate 320 g/ha): 100% | pre-emergence activity against MATIN ([3]; application rate 320 g/ha): 90% | pre-emergence activity against SETVI ([4]; application rate 320 g/ha): 100% | pre-emergence activity against STEME [11]: 90% | pre-emergence activity against POAAN ([5]; application rate 320 g/ha, visual grading after ca. 3 weeks): 100% | pre-emergence activity against ALOMY [6]: 90% | pre-emergence activity against KCHSC [12]: 90% | pre-emergence activity against VERPE [13]: 90% | pre-emergence activity against DIGSA [14]: 90% | post-emergence activity against ECHCG ([8]; application rate 1280 g/ha): 90% | post-emergence activity against MATIN [15]: 90% | post-emergence activity against SETVI ([9]; application rate 1280 g/ha): 90% | pre-emergence activity against ABUTH [16]: 90% | pre-emergence activity against ALOMY [17]: 90% | pre-emergence activity against DIGSA [18]: 100% | pre-emergence activity against ECHCG [19]: 100% | pre-emergence activity against LOLRI [20]: 100% | pre-emergence activity against MATIN [21]: 80% | pre-emergence activity against POLCO [22]: 90% | pre-emergence activity against SETVI ([23]; application rate 320 g/ha): 100% | pre-emergence activity against VERPE [24]: 90% | pre-emergence activity against VIOTR [25]: 90% | pre-emergence activity against ZEAMX [26]: 0% | pre-emergence activity against TRZAS ([27]; application rate 80 g/ha): 20% | post-emergence activity against ECHCG [28]: 80% | post-emergence activity against SETVI ([29]; application rate 320 g/ha): 80% | post-emergence activity against ZEAMX ([30]; application rate 80 g/ha): 0% | post-emergence activity against TRZAS [31]: 0% | post-emergence activity against ORYZA [32]: 0% | pre-emergence activity against ORYZA ([33]; application rate 80 g/ha): 0%

O=C1N(Cc2cccc(F)c2Cl)CCCC12CCCN(Cc1cccc(F)c1Cl)C2=O (racemic) [I-047]
pre-emergence activity against ECHCG [1]: 90% | pre-emergence activity against LOLRI ([2]; application rate 1280 g/ha): 90% | pre-emergence activity against SETVI ([4]; application rate 1280 g/ha): 100% | pre-emergence activity against POAAN ([5]; application rate 1280 g/ha, visual grading after ca. 3 weeks): 100% | pre-emergence activity against ALOMY [6]: 100% | pre-emergence activity against VERPE [13]: 90% | post-emergence activity against VERPE ([10]; application rate 1280 g/ha): 90% | pre-emergence activity against ECHCG [19]: 80% | pre-emergence activity against SETVI ([23]; application rate 80 g/ha): 80% | pre-emergence activity against ZEAMX [26]: 20% | pre-emergence activity against TRZAS ([27]; application rate 320 g/ha): 20% | pre-emergence activity against BRSNW [34]: 20% | post-emergence activity against ECHCG [28]: 80% | post-emergence activity against SETVI ([29]; application rate 80 g/ha): 80% | post-emergence activity against VIOTR [35]: 80% | post-emergence activity against ZEAMX ([30]; application rate 320 g/ha): 10% | post-emergence activity against TRZAS [31]: 20% | post-emergence activity against ORYZA [32]: 0% | post-emergence activity against GLXMA [36]: 20% | post-emergence activity against BRSNW [37]: 20% | pre-emergence activity against ORYZA ([33]; application rate 320 g/ha): 0%
